Tests used:
[1] = Cytotoxicity on parallel plate without virus, ATPlite readout; type: cell-based; settings: human, Hep-2 cells (no virus), Hep-2 cells without virus, 5-day incubation
Procedure: Following extensive parameter testing, the final assay is run as follows: Hep-2 cells are seeded into the inner 60 wells of a 96-well plate at 8,000 cells per well in a volume of 50 μL using Growth Media (DMEM without phenol red, 1% L-Glut, 1% Penn/Strep, 1% nonessential amino acids, 10% heat-inactivated FBS). 2-fold serial dilutions of control and test compounds are added to the wells in duplicate in a total volume of 25 μL. Viral stock is then added to the wells at a multiplicity of infection (MOI) of 0.1 in a volume of 25 μL, bringing the total volume of each well to 100 μL. The MOI is calculated using the PFU/mL, or TCID50 if unavailable. Each 96-well plate has a control column of 6 wells with cells and virus but no compound (negative control, max CPE), a column with cells but no compound or virus (positive control, minimum CPE), and a column with no cells or virus or compound (background plate/reagent control). The control wells with cells but no virus are given an additional 25 uL of growth media containing an equal quantity of sucrose as those wells receiving the viral stock in order to keep consistent in media and volume conditions. The outer wells of the plate are filled with 125 μL of moat media (DMEM, 1% Penn/Strep) to act as a thermal and evaporative moat around the test wells. Following a 5-day incubation period, the plates are read using ATPlite (50 uL added per well), which quantifies the amount of ATP (a measure of cell health) present in each well. Assay plates are read using the Envision luminometer. In parallel, cytotoxicity is examined on an additional 96-well plate treated in an identical manner, but substituting the 25 μL of viral stock for 25 μL of growth media. […] EC50 ranges are as follows: A<0.4 μM; B 0.4-0.8 μM; C>0.8 μM and CC50 ranges are as follows: A>50 μM; B 10-50 μM; C<10 μM.

[2] = system: Human RSV-A (“Long” strain); experiment: RSV-A assay: inhibition of cytopathic effect in Hep-2 cells, ATPlite readout; type: cell-based, Human respiratory syncytial virus (HRSV); settings: human respiratory syncytial virus, HEp-2, 120 h, read-out: Human RSV-A (“Long” strain) EC50
Procedure, shortened: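 Hep-2 cells (8,000/well) were infected with RSV-A Long at MOI 0.1 alongside duplicate 2-fold compound dilutions. After 5 days, cell viability was read by ATPlite luminescence to give EC50. CC50 came from a parallel plate without virus.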

SMILES | CC50 at 5 days [1] [µM] | EC50 [2] [µM]
O=C1Nc2ccccc2C(c2ccccc2)=NC1Nc1nnc(-c2cc3cccnc3s2)o1 (stereo not shown) [Example 43] | > 50 | > 0.8
CN1CCc2nc(-c3nnc(NC4N=C(c5ccccc5)c5ccccc5NC4=O)o3)sc2C1 (stereo not shown) [Example 44] | > 50 | > 0.8
O=C1Nc2ccccc2C(c2ccccc2)=NC1Nc1nnc(C2CCNCC2)o1 (stereo not shown) [Example 45] | > 50 | > 0.8
CN1CCC(c2nnc(NC3N=C(c4ccccc4)c4ccccc4NC3=O)o2)CC1 (stereo not shown) [Example 46] | > 50 | > 0.8
CC(=O)N1CCC(c2nnc(NC3N=C(c4ccccc4)c4ccccc4NC3=O)o2)CC1 (stereo not shown) [Example 47] | > 50 | > 0.8
O=C1Nc2ccccc2C(c2ccccc2)=NC1Nc1nnc([C@@H]2COCCN2)o1 (stereo partly shown) [Example 48] | > 50 | > 0.8
O=C1Nc2ccccc2C(c2ccccc2)=NC1Nc1nnc([C@H]2COCCN2)o1 (stereo partly shown) [Example 49] | > 50 | > 0.8
O=C1Nc2ccccc2C(c2ccccc2)=NC1Nc1nnc(-c2ccc(F)cc2F)o1 (stereo not shown) [Example 50] | > 50 | > 0.8
COc1ccc(-c2nnc(NC3N=C(c4ccccc4)c4ccccc4NC3=O)o2)nc1 (stereo not shown) [Example 51] | > 50 | 0.4 to 0.8
COc1cccc(-c2nnc(NC3N=C(c4ccccc4)c4ccccc4NC3=O)o2)n1 (stereo not shown) [Example 52] | > 50 | < 0.4
O=C1Nc2ccccc2C(c2ccccc2)=NC1Nc1nnc(-c2ccc(F)nc2)o1 (stereo not shown) [Example 53] | > 50 | 0.4 to 0.8
COc1ccc(-c2nnc(NC3N=C(c4ccccc4)c4ccccc4NC3=O)o2)cn1 (stereo not shown) [Example 54] | > 50 | < 0.4
O=C1Nc2ccccc2C(c2ccccc2)=NC1Nc1nnc(-c2ccnc(F)c2)o1 (stereo not shown) [Example 55] | > 50 | < 0.4
COc1ccnc(-c2nnc(NC3N=C(c4ccccc4)c4ccccc4NC3=O)o2)c1 (stereo not shown) [Example 57] | > 50 | > 0.8
O=C1Nc2ccccc2C(c2ccccc2)=NC1Nc1nnc(-c2cnccn2)o1 (stereo not shown) [Example 58] | > 50 | > 0.8
O=C1Nc2ccccc2C(c2ccccc2)=NC1Nc1nnc(-c2ncccn2)o1 (stereo not shown) [Example 59] | > 50 | > 0.8
O=C1Nc2ccccc2C(c2ccccc2)=NC1Nc1nnc(-c2cncnc2)o1 (stereo not shown) [Example 60] | > 50 | > 0.8
O=C1Nc2ccccc2C(c2ccccc2)=NC1Nc1nnc(-c2ccncc2)o1 (stereo not shown) [Example 61] | > 50 | 0.4 to 0.8
O=C1Nc2ccccc2C(c2ccccc2)=NC1Nc1nnc(-c2cccnn2)o1 (stereo not shown) [Example 62] | > 50 | > 0.8
O=C1Nc2ccccc2C(c2ccccc2)=NC1Nc1nnc(-c2ccncn2)o1 (stereo not shown) [Example 63] | > 50 | > 0.8
COCc1cccc(-c2nnc(NC3N=C(c4ccccc4)c4ccccc4NC3=O)o2)n1 (stereo not shown) [Example 64] | > 50 | > 0.8
Cn1nccc1-c1nnc(NC2N=C(c3ccccc3)c3ccccc3NC2=O)o1 (stereo not shown) [Example 65] | > 50 | > 0.8
Cn1cc(-c2nnc(NC3N=C(c4ccccc4)c4ccccc4NC3=O)o2)cn1 (stereo not shown) [Example 66] | > 50 | 0.4 to 0.8
Cn1ccnc1-c1nnc(NC2N=C(c3ccccc3)c3ccccc3NC2=O)o1 (stereo not shown) [Example 67] | > 50 | > 0.8
Cn1cnc(-c2nnc(NC3N=C(c4ccccc4)c4ccccc4NC3=O)o2)c1 (stereo not shown) [Example 68] | > 50 | > 0.8

SMILES | CC50 at 5 days [1] [µM] | EC50 [2] [µM]
O=C1Nc2ccccc2C(c2ccccc2)=NC1Nc1nnc(-c2nccs2)o1 (stereo not shown) [Example 69] | > 50 | > 0.8
O=C1Nc2ccccc2C(c2ccccc2)=NC1Nc1nnc(-c2ncco2)o1 (stereo not shown) [Example 70] | > 50 | > 0.8
Cc1ccc(-c2nnc(NC3N=C(c4ccccc4)c4ccccc4NC3=O)o2)o1 (stereo not shown) [Example 71] | > 50 | > 0.8
COCc1ccc(-c2nnc(NC3N=C(c4ccccc4)c4ccccc4NC3=O)o2)o1 (stereo not shown) [Example 72] | > 50 | > 0.8
CN(C)Cc1ccc(-c2nnc(NC3N=C(c4ccccc4)c4ccccc4NC3=O)o2)o1 (stereo not shown) [Example 73] | > 50 | > 0.8
Cc1cc(-c2nnc(NC3N=C(c4ccccc4)c4ccccc4NC3=O)o2)on1 (stereo not shown) [Example 74] | > 50 | > 0.8
O=C1Nc2ccccc2C(c2ccccc2)=NC1Nc1nnc(-c2cnco2)o1 (stereo not shown) [Example 75] | > 50 | > 0.8
O=C1Nc2ccccc2C(c2ccccc2)=NC1Nc1nnc(-c2cncs2)o1 (stereo not shown) [Example 76] | > 50 | > 0.8
O=C1Nc2ccccc2C(c2ccccc2)=NC1Nc1nnc(-c2cscn2)o1 (stereo not shown) [Example 77] | > 50 | 0.4 to 0.8
O=C1Nc2ccccc2C(c2ccccc2)=NC1Nc1nnco1 (stereo not shown) [Example 79] | > 50 | > 0.8
O=C1Nc2ccccc2C(c2ccccc2)=NC1Nc1nnc(-c2ccc(F)cc2)s1 (stereo not shown) [Example 80] | > 50 | > 0.8
O=C1Nc2ccccc2C(c2ccccc2)=NC1Nc1nnc(-c2ccccc2)s1 (stereo not shown) [Example 81] | > 50 | > 0.8
N#Cc1ccc(-c2nnc(NC3N=C(c4ccccc4)c4ccccc4NC3=O)s2)cc1 (stereo not shown) [Example 82] | > 50 | 0.4 to 0.8
O=C1Nc2ccccc2C(c2ccccc2)=NC1Nc1nnc(-c2ccncc2)s1 (stereo not shown) [Example 83] | > 50 | > 0.8
O=C1Nc2ccccc2C(c2ccccc2)=NC1Nc1ncc(-c2ccccc2)o1 (stereo not shown) [Example 84] | 10 to 50 | > 0.8
O=C1Nc2ccccc2C(c2ccccc2)=NC1Nc1nnc(-c2ccccc2)[nH]1 (stereo not shown) [Example 86] | > 50 | > 0.8
O=C1Nc2ccccc2C(c2ccccc2)=NC1Nc1nc(-c2ccccc2)ns1 (stereo not shown) [Example 87] | 10 to 50 | > 0.8
O=C1Nc2ccccc2C(c2ccccc2)=NC1Nc1nc(N2CCOCC2)ns1 (stereo not shown) [Example 88] | 10 to 50 | > 0.8
O=C1Nc2ccccc2C(c2ccccc2)=NC1Nc1nc(-c2ccccc2)no1 (stereo not shown) [Example 89] | 10 to 50 | > 0.8
O=C1Nc2ccccc2C(c2ccccc2)=NC1Nc1nc(-c2ccccc2)cs1 (stereo not shown) [Example 90] | < 10 | > 0.8
O=C1Nc2ccccc2C(c2ccccc2)=NC1Nc1cc(-c2ccccc2)ncn1 (stereo not shown) [Example 92] | 10 to 50 | > 0.8
O=C1Nc2ccccc2C(c2ccccc2)=NC1Nc1cc(N2CCOCC2)ncn1 (stereo not shown) [Example 93] | 10 to 50 | > 0.8
O=C1Nc2ccccc2C(c2ccccc2)=NC1Nc1cc(Oc2ccccc2)ncn1 (stereo not shown) [Example 94] | 10 to 50 | > 0.8
O=C1Nc2ccccc2C(c2ccccc2)=NC1Nc1ccnc(-c2ccccc2)n1 (stereo not shown) [Example 96] | 10 to 50 | > 0.8
O=C1Nc2ccccc2C(c2ccccc2)=NC1Nc1cccn(Cc2ccccc2)c1=O (stereo not shown) [Example 97] | > 50 | > 0.8

Source: patent publication US11390631B1, “Benzodiazepine derivatives as RSV inhibitors” (priority 2015, dated 2022)
